A word on the EC50: it is the concentration needed to bring the measured effect to its halfway point. Lower therefore signals a more potent agent.

A value given as a limit tells only on which side of the number the result lay.

The target in the experiment is Glycogen synthase kinase-3 beta (Homo sapiens, UniProt P49841). As to the kind of experiment: GSK3beta kinase inhibitor potency, dose response, biochemical, luminescence, cell-free homogeneous, retest (AID 434954).
Glycogen synthase kinase-3 beta, sequence (P49841 whole entry): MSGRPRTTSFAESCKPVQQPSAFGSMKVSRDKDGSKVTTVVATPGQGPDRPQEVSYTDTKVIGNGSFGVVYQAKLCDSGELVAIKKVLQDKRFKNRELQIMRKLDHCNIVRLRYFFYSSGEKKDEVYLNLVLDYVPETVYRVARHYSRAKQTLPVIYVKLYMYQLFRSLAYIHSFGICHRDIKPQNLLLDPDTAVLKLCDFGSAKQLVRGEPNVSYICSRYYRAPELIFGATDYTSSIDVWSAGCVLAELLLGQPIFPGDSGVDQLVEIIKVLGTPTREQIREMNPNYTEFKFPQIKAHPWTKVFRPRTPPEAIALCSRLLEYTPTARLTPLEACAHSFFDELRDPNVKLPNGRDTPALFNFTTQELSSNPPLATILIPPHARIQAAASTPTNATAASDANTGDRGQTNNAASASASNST
`Cc1cccc(OCc2nnc(SCC(=O)Nc3sc(C)c(C)c3C#N)n2C)c1` [N-(3-cyano-4,5-dimethylthiophen-2-yl)-2-[[4-methyl-5-[(3-methylphenoxy)methyl]-1,2,4-triazol-3-yl]sulfanyl]acetamide] registered a half-maximal effective concentration (EC50) of over 300 µM. `N#CCCn1cc(C(=O)O)c(-c2cccc([N+](=O)[O-])c2)n1` [SMR000372597]: the EC50 is over 300 µM. The result for `CC1=Nc2ncnn2C(c2c[nH]c3ccccc23)C1C(=O)OC(C)C` (stereo not drawn) reads 1.81 µM; that for `CNc1nc(N)c([N+](=O)[O-])c(Nc2cccc(F)c2)n1` [SMR000436035], 12.4 µM. Turning to `O=[N+]([O-])c1ccc2ccn(C3OCC(O)C(O)C3O)c2c1` (stereo not drawn) [SMR000283162], the EC50 is over 300 µM. To `CCOC(=O)c1cnc2ccccc2c1Nc1ccc(C(=O)O)cc1` [SMR000299060] belongs over 300 µM; to `O=C(O)c1ccccc1Nc1ccnc(C(F)(F)F)c1` [2-[[2-(trifluoromethyl)-4-pyridinyl]amino]benzoic acid], over 300 µM.

In turn, `Cc1ccc2c(c1)C1CN(C)CCC1N2C(=S)Nc1ccc(Cl)cc1Cl` (stereo not drawn) [SMR000385491] registered a concentration for a half-maximal effect (EC50) of over 300 µM. In turn, `NC(=O)c1c(NC(=O)CN2C(=O)CCC2=O)sc2c1CCCCC2` [SMR000018552] had a half-maximal effective concentration (EC50) of over 300 µM.

Regarding `O=c1cc(O)cc2oc(-c3ccc(O)c(O)c3)c(O[C@@H]3O[C@H](CO)[C@@H](O)[C@H](O)[C@H]3O)c(O)c1-2` [Quercetin 3-O-beta-D-glucoside], the EC50 stood at 15.8 µM. Consider `COc1cccc2cc(C(=O)Oc3ccccc3)c(=O)oc12` [MLS000999696], for which the EC50 is over 300 µM. On to `Cc1ccc(-c2nn(-c3ccccc3)cc2CN=O)cc1` [N-[[3-(4-methylphenyl)-1-phenylpyrazol-4-yl]methylidene]hydroxylamine], for which a half-maximal effect (EC50) was put at 0.565 µM. To `Cc1cc(C)n2nc(SCC(=O)N(CC(C)C)c3c(N)n(CC(C)C)c(=O)[nH]c3=O)nc2n1` belongs over 300 µM. The result for `CCc1ccc(C2NC(=S)N=C3CC(C)(C)CC(=O)C32)cc1` (stereo not drawn) [MLS000720309] reads over 300 µM.

Take `CCOc1ccc(NC(=O)COC(=O)c2ccc3c(c2)C(=O)N(CCc2ccccc2)C3=O)cc1` [SMR000261375]: the EC50 was over 300 µM. The result for `COc1ccc(C(=O)ON=C(C)c2ccccc2)cc1` [SMR000159704] reads 20.9 µM; that for `CC(C)(C)c1ccc(C=Nn2cnnc2)cc1` [MLS000660819], over 300 µM.

Compound `COCCn1c(SCC(=O)Nc2cccc(S(N)(=O)=O)c2)nc2ccccc21` [2-[1-(2-methoxyethyl)benzimidazol-2-yl]sulfanyl-N-(3-sulfamoylphenyl)ethanamide] came in with an EC50 of over 300 µM. The result for `CC(=O)CSc1nc(-c2cccs2)c(C#N)c(=O)[nH]1` [4-oxidanylidene-2-(2-oxidanylidenepropylsulfanyl)-6-thiophen-2-yl-1H-pyrimidine-5-carbonitrile] reads over 300 µM; that for `Cc1nc(C)c(-c2csc(Nc3ccc(C(=O)O)c(O)c3)n2)s1` [4-[[4-(2,4-dimethyl-1,3-thiazol-5-yl)-1,3-thiazol-2-yl]amino]-2-hydroxybenzoic acid], over 300 µM. To `OCCNc1nc2nonc2nc1NCCO` belongs over 300 µM; to `Cc1cc(NC(=O)CSc2nnc(C3CC3)n2Cc2ccccc2)no1` [MLS000566701], over 300 µM; to `O=C(CCS(=O)(=O)Cc1ccccc1)Nc1ncc([N+](=O)[O-])s1` [SMR000669229], 57.1 µM. The result for `C=C1CSc2nc(=O)c3c4c(sc3n21)CCCC4` [MLS000108332] reads over 300 µM. In turn, `COc1ccccc1Nc1nc(NCC(C)C)nc(N)c1[N+](=O)[O-]` [SMR000436174] came in with an EC50 of 0.888 µM. The result for `O=C(Cc1ccc(Br)cc1)Nc1ncc([N+](=O)[O-])s1` [SMR000429978] reads 4.3 µM; that for `COc1cc2ncnc(Nc3ccc4c(c3)OCO4)c2cc1OC`, over 300 µM; that for `COc1ccc(OCCCC(=O)NCc2ccco2)cc1` [N-Furan-2-ylmethyl-4-(4-methoxy-phenoxy)-butyramide], over 300 µM.

The values above are taken from BindingDB's records for doi:10.7270/Q2TX3CTT (Broad Institute, 2010).
